Results taken from patent US20180155757A1, “IDENTIFICATION OF BACTERIA THAT ARE RESISTANT TO CARBAPENEMS BY MEMBRANE IMPERVIOUSNESS” (BIOMÉRIEUX, priority 2015, published 2018).
Like-named read-outs stand apart in the source and are kept apart here.

How the values were obtained:
Test in all cases: Etest MIC of indicator carbapenems on MH II agar without/with PMBN
Assay type in all cases: cell-based
[1] = test system: E. coli 1008078 (VIM producer)
Experimental: (§1) The determinations of antibiotic MIC were carried out on solid culture media with the Etest® method. To do this, Etest® strips (bioMérieux, France) were used: • Etest® Imipenem IM 32, and • Etest® Ertapenem ETP 32, and also solid culture media, differing from one another by virtue of their non-inhibitory concentrations of PMBN.
(§2) These solid culture media are prepared in Petri dishes (0=145 mm; V=50 ml) on a base of MH II Agar (Becton Dickinson®, United States), more or less supplemented with PMBN. The PMBN concentrations range from 0 up to concentrations equivalent to one fifth of the MIC of PMBN (⅕ MICPMBN).
(§3) Using a swab and the Retro C80™ rota-plater (bioMérieux, France), the culture media were inoculated with the bacteria, originating from an inoculum of 0.5 McFarland, prepared in 0.85% NaCl solution from colonies subcultured the day before on MH II agar.
(§4) The various Etest® strips are then deposited on the surface of the culture media. After 16 to 20 hours of incubation at 35° C., the MICS were read.
(§5) By way of indicator carbapenems according to the invention, in addition to imipenem (IM) and ertapenem (ETP), meropenem (MP) was also tested. Like the other two antibiotics, meropenem was used in the form of Etest® strips (Etest® Meropenem MP 32 from the company bioMérieux, France).
(§6) The methods used to prepare the new culture media and to carry out the antibiotic-sensitivity tests are identical to those described above.

[2] = test system: K. pneumoniae KP 63 (porin−); settings: Klebsiella pneumoniae
Experimental: as §1, §2, §3, §4, §5, §6

[3] = test system: E. coli SAB 108 (porin−); settings: Escherichia coli
Experimental: as §1, §2, §3, §4, §5, §6

[4] = test system: E. cloacae 1008080 (IMP producer); settings: in µg/mL
Experimental: as §1, §2, §3, §4, §5, §6

[5] = test system: E. cloacae 1204056 (membrane impermeability)
Experimental: as §1, §2, §3, §4, §5, §6

[6] = test system: E. cloacae 1204153 (membrane impermeability); settings: in µg/mL
Experimental: as §1, §2, §3, §4, §5, §6

[7] = test system: K. pneumoniae 1204035 (membrane impermeability); settings: in µg/mL
Experimental: as §1, §2, §3, §4, §5, §6

[8] = test system: E. cloacae 1008074 (VIM producer)
Experimental: as §1, §2, §3, §4, §5, §6

[9] = test system: E. cloacae 1204053 (membrane impermeability)
Experimental: as §1, §2, §3, §4, §5, §6

[10] = test system: Enterobacter aerogenes EA 27 (porin−); settings: Klebsiella aerogenes
Experimental: as §1, §2, §3, §4, §5, §6

[11] = test system: E. coli SAB 100 (porin−); settings: Escherichia coli
Experimental: as §1, §2, §3, §4, §5, §6

[12] = test system: K. pneumoniae 1204036 (membrane impermeability)
Experimental: as §1, §2, §3, §4, §5, §6

[13] = test system: Enterobacter aerogenes EA 5 (porin−); settings: Klebsiella aerogenes
Experimental: as §1, §2, §3, §4, §5, §6

[14] = test system: K. pneumoniae 1204039 (membrane impermeability)
Experimental: as §1, §2, §3, §4, §5, §6

[15] = test system: E. cloacae 1109137 (OXA-48 producer)
Experimental: as §1, §2, §3, §4, §5, §6

[16] = test system: E. cloacae 1204058 (membrane impermeability); settings: in µg/mL
Experimental: as §1, §2, §3, §4, §5, §6

[17] = test system: K. pneumoniae 1103183 (NDM producer)
Experimental: as §1, §2, §3, §4, §5, §6

[18] = test system: K. pneumoniae 1108003 (KPC-3 producer)
Experimental: as §1, §2, §3, §4, §5, §6

[19] = test system: E. cloacae 1204051 (membrane impermeability)
Experimental: as §1, §2, §3, §4, §5, §6

C[C@@H](O)[C@H]1C(=O)N2C(C(=O)O)=C(S[C@@H]3CN[C@H](C(=O)Nc4cccc(C(=O)O)c4)C3)[C@H](C)[C@H]12 [ETP, ertapenem]
MIC ([1]; [PMBN] 0, Table 4a): 2 µg/mL
MIC ([1]; [PMBN] 100, Table 4a): 0.75 µg/mL
MIC ([1]; [PMBN] 200, Table 4a): 0.5 µg/mL
MIC ([1]; [PMBN] 300, Table 4a): 0.38 µg/mL
MIC ([2]; [PMBN] 0): 1 µg/mL
MIC ([2]; [PMBN] 50 μg/ml): 0.5 µg/mL
MIC ([2]; [PMBN] 100 μg/ml): 0.38 µg/mL
MIC ([2]; [PMBN] 150 μg/ml): 0.19 µg/mL
MIC ([2]; [PMBN] 200 μg/ml): 0.125 µg/mL
MIC ([3]; [PMBN] 0): 4 µg/mL
MIC ([3]; [PMBN] 50 μg/ml): 0.25 µg/mL
MIC ([3]; [PMBN] 100 μg/ml): 0.19 µg/mL
MIC ([3]; [PMBN] 150 μg/ml): 0.19 µg/mL
MIC ([3]; [PMBN] 200 μg/ml): 0.19 µg/mL
MIC ([4]; [PMBN] 0, Table 4a): 16
MIC ([4]; [PMBN] 100, Table 4a): 24
MIC ([4]; [PMBN] 200, Table 4a): >32
MIC ([4]; [PMBN] 300, Table 4a): 12-24
MIC ([5]; [PMBN] 0, Table 4a): > 32 µg/mL
MIC ([5]; [PMBN] 100, Table 4a): 12 µg/mL
MIC ([5]; [PMBN] 200, Table 4a): 3 µg/mL
MIC ([5]; [PMBN] 300, Table 4a): 1 µg/mL
MIC ([6]; [PMBN] 0, Table 4a): >32
MIC ([6]; [PMBN] 100, Table 4a): 8
MIC ([6]; [PMBN] 200, Table 4a): 4
MIC ([6]; [PMBN] 300, Table 4a): 3
MIC ([7]; [PMBN] 0, Table 4a): >32
MIC ([7]; [PMBN] 100, Table 4a): 8
MIC ([7]; [PMBN] 200, Table 4a): 8-12
MIC ([7]; [PMBN] 300, Table 4a): 6
MIC ([8]; [PMBN] 0, Table 4a): 0.38 µg/mL
MIC ([8]; [PMBN] 100, Table 4a): 0.5 µg/mL
MIC ([8]; [PMBN] 200, Table 4a): 0.5 µg/mL
MIC ([8]; [PMBN] 300, Table 4a): 0.5 µg/mL
MIC ([9]; [PMBN] 0, Table 4a): > 32 µg/mL
MIC ([9]; [PMBN] 100, Table 4a): > 32 µg/mL
MIC ([9]; [PMBN] 200, Table 4a): > 32 µg/mL
MIC ([9]; [PMBN] 300, Table 4a): 4 µg/mL
MIC [10]: 0.125 µg/mL
MIC ([10]; E. aerogenes EA 27 (porin−), [PMBN] 0, Table 4, read-out: MIC): > 32 µg/mL
MIC ([10]; E. aerogenes EA 27 (porin−), [PMBN] 50 μg/ml, read-out: MIC): 4 µg/mL
MIC ([10]; E. aerogenes EA 27 (porin−), [PMBN] 100 μg/ml, read-out: MIC): 1.5 µg/mL
MIC ([10]; E. aerogenes EA 27 (porin−), [PMBN] 150 μg/ml, read-out: MIC): 0.75 µg/mL
MIC ([10]; E. aerogenes EA 27 (porin−), [PMBN] 200 μg/ml, read-out: MIC): 0.19 µg/mL
MIC ([10]; EA 27 (porin−), [PMBN] 0, Table 2, read-out: MIC): 64 µg/mL
MIC ([10]; EA 27 (porin−), [PMBN] MIC/8, read-out: MIC): 0.25 µg/mL
MIC ([10]; EA 27 (porin−), [PMBN] MIC/10, read-out: MIC): 16 µg/mL
MIC ([11]; [PMBN] 0): 1.5 µg/mL
MIC ([11]; [PMBN] 50 μg/ml): 0.19 µg/mL
MIC ([11]; [PMBN] 100 μg/ml): 0.19 µg/mL
MIC ([11]; [PMBN] 150 μg/ml): 0.125 µg/mL
MIC ([11]; [PMBN] 200 μg/ml): 0.125 µg/mL
MIC ([12]; [PMBN] 0, Table 4a): > 32 µg/mL
MIC ([12]; [PMBN] 100, Table 4a): > 32 µg/mL
MIC ([12]; [PMBN] 200, Table 4a): > 32 µg/mL
MIC ([12]; [PMBN] 300, Table 4a): > 32 µg/mL
MIC ([13]; E. aerogenes EA 5 (porin−), [PMBN] 0, Table 4): 6 µg/mL
MIC ([13]; E. aerogenes EA 5 (porin−), [PMBN] 50 μg/ml): 2 µg/mL
MIC ([13]; E. aerogenes EA 5 (porin−), [PMBN] 100 μg/ml): 2 µg/mL
MIC ([13]; E. aerogenes EA 5 (porin−), [PMBN] 150 μg/ml): 1.5 µg/mL
MIC ([13]; E. aerogenes EA 5 (porin−), [PMBN] 200 μg/ml): 1 µg/mL
MIC ([13]; EA 5 (porin−), [PMBN] 0, Table 2): 32 µg/mL
MIC ([13]; EA 5 (porin−), [PMBN] MIC/5): 4 µg/mL
MIC ([13]; EA 5 (porin−), [PMBN] MIC/8): 4 µg/mL
MIC ([13]; EA 5 (porin−), [PMBN] MIC/10): 4 µg/mL
MIC ([14]; [PMBN] 0, Table 4a): 2 µg/mL
MIC ([14]; [PMBN] 100, Table 4a): 1.5 µg/mL
MIC ([14]; [PMBN] 200, Table 4a): 1.5 µg/mL
MIC ([14]; [PMBN] 300, Table 4a): 1 µg/mL
MIC ([15]; [PMBN] 0, Table 4a): 24 µg/mL
MIC ([15]; [PMBN] 200, Table 4a): 12 µg/mL
MIC ([15]; [PMBN] 300, Table 4a): > 32 µg/mL
MIC ([16]; [PMBN] 0, Table 4a): >32
MIC ([16]; [PMBN] 100, Table 4a): 8-12
MIC ([16]; [PMBN] 300, Table 4a): 0.75
MIC ([17]; [PMBN] 0, Table 4a): > 32 µg/mL
MIC ([17]; [PMBN] 100, Table 4a): > 32 µg/mL
MIC ([17]; [PMBN] 200, Table 4a): 32 µg/mL
MIC ([17]; [PMBN] 300, Table 4a): 32 µg/mL
MIC ([18]; [PMBN] 0, Table 4a): 8 µg/mL
MIC ([18]; [PMBN] 100, Table 4a): 24 µg/mL
MIC ([18]; [PMBN] 200, Table 4a): > 32 µg/mL
MIC ([18]; [PMBN] 300, Table 4a): > 32 µg/mL
MIC ([19]; [PMBN] 0, Table 4a): > 32 µg/mL
MIC ([19]; [PMBN] 100, Table 4a): 12 µg/mL
MIC ([19]; [PMBN] 200, Table 4a): 4 µg/mL
MIC ([19]; [PMBN] 300, Table 4a): 3 µg/mL
